Here are results for 26 molecules from ChEMBL document CHEMBL3286274, “Investigation of a novel series of 2-hydroxyisoquinoline-1,3(2H,4H)-diones as human immunodeficiency virus type 1 integrase inhibitors” (J Med Chem, 2014).

Active and inactive are the calls of the source. No cut-off for these calls is given here.

For data set [1], the target named is Human immunodeficiency virus type 1 reverse transcriptase (Human immunodeficiency virus 1) (UniProt Q72547). The data set can be described thus: Inhibition of recombinant HIV-1 reverse transcriptase-associated RNase H activity using [3H]-labeled RNA as substrate at 10 uM after 10 mins relative to control.
Data set [2] deals with Human immunodeficiency virus 1. The data set can be described thus: Antiviral activity against HIV-1 3B infected in human MT4 cells assessed as protection against virus-induced cytopathic effect by MTT assay. Format: functional, organism-based. The following applies: Human immunodeficiency virus 1, 3B. On the technique in general: Protection from cytopathic effect is a common read-out in antiviral testing.

In data set [3] the target is Human immunodeficiency virus type 1 integrase (Human immunodeficiency virus 1, UniProt Q7ZJM1). In words: Inhibition of HIV-1 overall integrase activity using 5'-digoxigenin-labeled GACCCTTTTAGTCAGTGTGGAAAATCTCTAGCAGT-3' as substrate after 1 hr by ELISA. Background: An ELISA detects its analyte on a solid surface through an enzyme-linked reagent.
Data set [4] can be described thus: in vitro. The following applies: human, MT4 cells infected with HIV-1 3B.
Description: Therapeutic index, ratio of CC50 for human MT4 cells infected with HIV-1 3B to EC50 for HIV-1 3B infected in human MT4 cells
The nature of data set [5]: Cytotoxicity against human MT4 cells infected with HIV-1 3B assessed as reduction in cell viability by MTT assay. Type of data set: cell-based.
Data set [6] addresses Human immunodeficiency virus type 1 reverse transcriptase (Human immunodeficiency virus 1, UniProt Q72547). In words: Inhibition of recombinant HIV-1 reverse transcriptase-associated RNase H activity using [3H]-labeled RNA as substrate after 10 mins.
Data set [7] has as its system Human immunodeficiency virus 1. The data set can be described thus: Antiviral activity against HIV-1 3B infected in human MT4 cells assessed as inhibition of p24 antigen production by measuring time delay in loss of compound activity at 50 to 100 times EC50 by ELISA. Format: functional.
A short description of data set [8]: n-octanol-PBS partition coefficient, log D of the compound at pH 7.4. Type of data set: physicochemical.
For data set [9], the system named is Human immunodeficiency virus 1. In words: Resistance ratio of EC50 for raltegravir-resistant HIV1 harboring integrase G140S/Q148H double mutant to EC50 for wild type HIV1. Type of data set: functional.
For data set [10], the system named is Human immunodeficiency virus 1. The data set can be described thus: Resistance ratio of EC50 for raltegravir-resistant HIV1 harboring integrase N155H mutant to EC50 for wild type HIV1. Type of data set: functional.
The test system of data set [11] is Human immunodeficiency virus 1. In words: Resistance ratio of EC50 for raltegravir-resistant HIV1 harboring integrase E92Q mutant to EC50 for wild type HIV1. Format: functional.
Data set [12] concerns Human immunodeficiency virus 1. In words: Resistance ratio of EC50 for raltegravir-resistant HIV1 harboring integrase Q148H mutant to EC50 for wild type HIV1. Type of data set: functional.
For data set [13], the system named is Human immunodeficiency virus 1. The data set can be described thus: Antiviral activity against HIV-1 3B infected in human MT4 cells assessed as inhibition of p24 antigen production at 50 to 100 times EC50 treated for 1 to 25 hrs measured at 30 hrs by ELISA. Type of data set: functional, organism-based.

For the molecule `CC(=O)Nc1ccc2c(c1)C(=O)N(O)C(=O)C2C(=O)NCc1ccc(F)cc1` (stereo not drawn), the inhibition (usually the drop in the measured response relative to a control, in per cent) in data set [1] came to 25.2%. The EC50 (usually the concentration needed to bring the measured effect to its halfway point) in data set [2] was 29300 nM. It took 100 nM to reach half-maximal inhibition in data set [3] (IC50). The selectivity ratio in data set [4] amounted to 5. Further, the CC50 (usually the concentration giving 50% cytotoxicity) in [5] is 149 µM.
`O=C(Nc1ccc2c(c1)C(=O)N(O)C(=O)C2C(=O)NCc1ccc(F)cc1)c1ccccc1` (stereo not drawn): the inhibition in data set [1] was 41.2%. The EC50 in [2] is over 21000 nM. Besides, the half-maximal inhibitory concentration (IC50) (in general, the concentration at which inhibition is half-maximal) in [3] was 80 nM. The CC50 in data set [5] was found to be 21 µM.
As for `O=C(NCc1ccc(F)cc1)C1C(=O)N(O)C(=O)c2cc(Br)ccc21` (stereo not drawn), the inhibition in data set [1] turned out to be 38.7%. Also, in data set [2], the concentration giving a half-maximal response (EC50) amounted to 2990 nM. The IC50 in [3] is 60 nM. The selectivity ratio in data set [4] was found to be 33. In addition, in data set [5], the CC50 was 99.5 µM.
On to `O=C(NCc1ccc(F)cc1)c1c(O)n(O)c(=O)c2cc([N+](=O)[O-])ccc12`, for which the results for the IC50 in [6] and in [3] were 4.8 µM and 10 nM, respectively. Moreover, in data set [1], the inhibition was determined as 78.7%.
`CC(C)c1nc(CN(C)C(=O)N[C@H](C(=O)N[C@@H](Cc2ccccc2)C[C@H](O)[C@H](Cc2ccccc2)NC(=O)OCc2cncs2)C(C)C)cs1` [RITONAVIR]: in data set [7], the Time turned out to be 25 h.
On to `O=C(NCc1ccccc1)c1c(O)n(O)c(=O)c2cc([N+](=O)[O-])ccc12`, for which the inhibition in data set [1] came to 69.1%. In addition, the EC50 in data set [2] is 210 nM. It took 10 nM to reach half-maximal inhibition in [3] (IC50). In addition, the selectivity ratio in [4] is 564. For the same molecule, the CC50 in data set [5] was 118 µM.
`O=C(NCCc1ccc(F)cc1)c1c(O)n(O)c(=O)c2cc([N+](=O)[O-])ccc12`: the half-maximal effective concentration (EC50) in data set [2] is 950 nM. The same molecule returned an IC50 in data set [3] of 60 nM. Moreover, the selectivity ratio in [4] is over 262. The half-maximal cytotoxic concentration (CC50) in data set [5] was over 250 µM.
For `O=C(Cc1ccccc1)Nc1ccc2c(c1)C(=O)N(O)C(=O)C2C(=O)NCc1ccc(F)cc1` (stereo not drawn), in [1], the inhibition was found to be 46.4%. Further, in data set [2], the EC50 is over 31000 nM. The same molecule returned an IC50 in data set [3] of 230 nM. Further, the 50% cytotoxic concentration (CC50) in data set [5] came to 31 µM.
For `O=C(NCc1ccc(F)cc1)C1C(=O)N(O)C(=O)c2cc(Cl)ccc21` (stereo not drawn), in that order: 26.3%, 4190 nM, 140 nM and 106 µM.
`Cc1nnc(C(=O)NC(C)(C)c2nc(C(=O)NCc3ccc(F)cc3)c(O)c(=O)n2C)o1`: in [5], the CC50 was over 8 µM.
As for `O=C(NCc1ccc(F)cc1)C1C(=O)N(O)C(=O)c2ccc(F)cc21` (stereo not drawn), the inhibition in data set [1] was determined as 24.5%. For the same molecule, in [2], the EC50 came to 3160 nM. The molecule further registered an IC50 in [3] of 240 nM. In addition, the selectivity ratio in data set [4] came out at 39. The CC50 in [5] was determined as 123 µM.
On to `O=C(Nc1ccc2c(c1)C(=O)N(O)C(=O)C2C(=O)NCc1ccc(F)cc1)c1ccccn1` (stereo not drawn), for which, in [2], the concentration giving a half-maximal response (EC50) was over 1200 nM. In [3], this molecule had an IC50 of 160 nM. Besides, in data set [5], the CC50 was 1 µM.
For the molecule `O=C(NCc1ccc(F)cc1)c1c(O)n(O)c(=O)c2ccccc12`, the logD (as a rule, the decadic logarithm of the distribution of all forms, ionised or not, between an organic phase and buffer at a given pH) in data set [8] turned out to be 0.56. Besides, the “Ratio EC50” value in data set [9], in [10], in data set [11] and in data set [12] was 1 each time. In addition, the inhibition entry in data set [13] was “Active”.
Consider `Cc1cn([C@H]2C[C@H](N=[N+]=[N-])[C@@H](CO)O2)c(=O)[nH]c1=O` [ZIDOVUDINE], for which, in data set [7], the Time amounted to 4 h.
`COc1ccc(CNC(=O)c2c(O)n(O)c(=O)c3cc([N+](=O)[O-])ccc23)cc1`: the inhibition in data set [1] is 67.2%. Besides, the EC50 in [2] is 2970 nM. This molecule showed an IC50 in [3] of 10 nM. Further, in [4], the selectivity ratio is over 84. In data set [5], the cytotoxic concentration (CC50) was over 250 µM.
For `O=C(NCc1ccc(F)cc1)C1C(=O)N(O)C(=O)c2cc(C(F)(F)F)ccc21` (stereo not drawn), in that order: 25.5%, 600 nM, 20 nM, over 94 and over 56 µM.
For `O=C(NCc1ccc(F)cc1)C1C(=O)N(O)C(=O)c2cc(F)ccc21` (stereo not drawn), in that order: 21.9%, 730 nM, 240 nM, 162 and 116 µM.
Turning to `N#Cc1ccc2c(C(=O)NCc3ccc(F)cc3)c(O)n(O)c(=O)c2c1`, the concentration giving a half-maximal response (EC50) in data set [2] turned out to be 670 nM. Further, in [3], the IC50 came out at 70 nM. The selectivity ratio in [4] is over 187. For the same molecule, the half-maximal cytotoxic concentration (CC50) in data set [5] was over 125 µM.
For `O=C(NCc1ccc(F)cc1)C1C(=O)N(O)C(=O)c2c(F)cccc21` (stereo not drawn), in [1], the inhibition stood at 31.6%. The EC50 in data set [2] came to 4460 nM. Moreover, in [3], it took 880 nM to reach half-maximal inhibition (IC50). Further, the selectivity ratio in data set [4] is 33. For the same molecule, in data set [5], the 50% cytotoxic concentration (CC50) came out at 149 µM.
For `Nc1ccc2c(c1)C(=O)N(O)C(=O)C2C(=O)NCc1ccc(F)cc1` (stereo not drawn), in that order: 29.4%, 23300 nM, 110 nM, 10 and 253 µM.
Regarding `COc1ccc2c(c1)C(=O)N(O)C(=O)C2C(=O)NCc1ccc(F)cc1` (stereo not drawn), the inhibition in [1] came to 15.5%. Also, in data set [2], the EC50 came to 6500 nM. For the same molecule, the IC50 in data set [3] was 260 nM. Also, the selectivity ratio in data set [4] came to 3. Also, in data set [5], the CC50 was found to be 21 µM.
In the case of `O=C(NCc1ccc(F)cc1)c1c(O)n(O)c(=O)c2ccc([N+](=O)[O-])cc12`, the inhibition in data set [1] came out at 48.2%. Besides, in [2], the concentration giving a half-maximal response (EC50) turned out to be 270 nM. In addition, the IC50 in data set [3] is 30 nM. Also, the selectivity ratio in [4] was over 463. In addition, in [5], the CC50 was over 125 µM.
For `CCCCCCNC(=O)c1c(O)n(O)c(=O)c2cc([N+](=O)[O-])ccc12`, in that order: 49%, 4210 nM, 60 nM, over 59 and over 250 µM.
Regarding `O=C(Nc1ccc(F)cc1)c1c(O)n(O)c(=O)c2cc([N+](=O)[O-])ccc12`, the EC50 in [2] came to 190 nM. This molecule yielded an IC50 in data set [3] of 30 nM. Further, the selectivity ratio in [4] turned out to be 981. Moreover, the CC50 in [5] turned out to be 186 µM.
Regarding `O=C(Cc1cccs1)Nc1ccc2c(c1)C(=O)N(O)C(=O)C2C(=O)NCc1ccc(F)cc1` (stereo not drawn), the inhibition in [1] worked out at 28.9%. In [2], the EC50 is over 41000 nM. The molecule further yielded an IC50 in [3] of 60 nM. Moreover, in [5], the CC50 is 41 µM.
In the case of `O=C(Nc1ccccc1)c1c(O)n(O)c(=O)c2cc([N+](=O)[O-])ccc12`, in data set [1], the inhibition amounted to 60%. Further, the EC50 in data set [2] came out at 170 nM. Besides, in [3], the IC50 turned out to be 10 nM. Moreover, in data set [4], the selectivity ratio came to 679. Moreover, in data set [5], the CC50 is 115 µM.
